Reference: patent publication US20240417405A1, “Substituted Spiro Derivatives” (Janssen Pharmaceutica NV, priority 2021, published 2024)

Key:
MOLM14 cells = assay: Proliferation assay, spheroid-like growth, MOLM14 (MLL-AF9 rearranged); type: cell-based, human; conditions: Homo sapiens, MOLM-14, 192 h, 8 days, confluence as measure of spheroid size, read-out: spheroid assay_OneTime MOLM14 IC50
Procedure, shortened: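 Read-out is spheroid confluence from live-cell images taken on day 8, scaled between DMSO-treated wells (0% cytotoxicity) and a low control such as 1 μM staurosporin. Cells were exposed to compound for 8 days in low-attachment plates; KO-52 served as the MLL-wildtype counterscreen.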

[1] = biological target: T1, menin/MLL (terbium chelate-labeled menin, FITC-MBM1 peptide) (Homo sapiens, UniProt O00255, T541A); assay: Menin/MLL homogenous time-resolved fluorescence (HTRF) assay; type: binding; conditions: 30 min incubation
T1 construct: Menin (a.a 1-610-6xhis tag)
T1 sequence (O00255 with tags, fused parts or gaps T541A): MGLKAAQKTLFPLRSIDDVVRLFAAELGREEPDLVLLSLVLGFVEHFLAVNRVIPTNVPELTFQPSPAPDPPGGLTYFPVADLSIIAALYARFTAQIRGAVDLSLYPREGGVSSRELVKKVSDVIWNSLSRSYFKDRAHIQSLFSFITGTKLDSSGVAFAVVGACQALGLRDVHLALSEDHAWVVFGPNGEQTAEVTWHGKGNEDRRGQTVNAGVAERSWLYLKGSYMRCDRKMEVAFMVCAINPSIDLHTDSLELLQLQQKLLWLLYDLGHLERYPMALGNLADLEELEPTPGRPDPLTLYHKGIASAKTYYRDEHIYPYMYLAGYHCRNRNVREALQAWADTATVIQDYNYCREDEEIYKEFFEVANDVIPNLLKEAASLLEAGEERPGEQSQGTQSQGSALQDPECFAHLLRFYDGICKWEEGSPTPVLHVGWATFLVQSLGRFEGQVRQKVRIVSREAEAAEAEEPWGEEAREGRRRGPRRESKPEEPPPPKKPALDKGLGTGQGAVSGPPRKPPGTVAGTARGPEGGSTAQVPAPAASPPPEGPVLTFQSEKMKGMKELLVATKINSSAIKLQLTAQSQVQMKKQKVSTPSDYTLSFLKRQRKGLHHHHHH
Procedure, shortened: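 Displacement of FITC-labeled MBM1 peptide (75 nM) from terbium-labeled menin 1-610 (200 pM) measured by HTRF emission ratio. Eleven four-fold dilutions, typically from 10 μM, normalised to saturating-competitor and no-compound controls; IC50 from four-parameter logistic.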

| Compound | IC50 (MOLM14 cells) | IC50 [1] |
| --- | --- | --- |
| CC(C)[C@H]([C@H]1C[C@@H](Nc2ccnc(NS(C)(=O)=O)n2)C1)N1CC2(CCN(c3ncnnc3Oc3ccc(F)cc3-c3cncnc3C3CC3)C2)C1 (single isomer, unassigned) [Compound 408] | 220 nM | 0.14 nM |
| CC(=O)Nc1cncc(N[C@H]2C[C@@H](C(C(C)C)N3CC4(CCN(c5ncnnc5Oc5ccc(F)cc5-c5cncnc5C5CC5)C4)C3)C2)c1 (single isomer, unassigned) [Compound 410] | 19 nM | 0.11 nM |
| CC(C)C(C1CC(Nc2ncc3cn[nH]c3n2)C1)N1CC2(CCN(c3ncnnc3Oc3ccc(F)cc3-c3cncnc3C3CC3)C2)C1 (single isomer, unassigned) [Compound 411] | 10 nM | 0.15 nM |
| CC(C)[C@H]([C@H]1C[C@@H](Nc2ccn3ccnc3n2)C1)N1CC2(CCN(c3ncnnc3Oc3ccc(F)cc3-c3cncnc3C3CC3)C2)C1 (single isomer, unassigned) [Compound 412] | < 1.8 nM | 0.16 nM |
| CC(C)[C@H]([C@H]1C[C@@H](Nc2ncnc3[nH]ncc23)C1)N1CC2(CCN(c3ncnnc3Oc3ccc(F)cc3-c3cncnc3C3CC3)C2)C1 (single isomer, unassigned) [Compound 413] | 26 nM | 0.08 nM |
| CC(=O)Nc1cc(N[C@H]2C[C@@H](C(C(C)C)N3CC4(CCN(c5ncnnc5Oc5ccc(F)cc5-c5cncnc5C5CC5)C4)C3)C2)cnn1 (single isomer, unassigned) [Compound 414] | 21 nM | 0.1 nM |
| CNC(=O)c1cnc(N[C@H]2C[C@@H]([C@@H](C(C)C)N3CC4(CCN(c5ncnnc5Oc5ccc(F)cc5-c5cnc(C)nc5C5CC5)C4)C3)C2)o1 (single isomer, unassigned) [Compound 416] | 8.9 nM | 0.17 nM |
| CNC(=O)c1cnc(N[C@H]2C[C@@H]([C@@H](C(C)C)N3CC4(CCN(c5ncnnc5Oc5ccc(F)cc5-c5cnc(C)nc5C5CC5)C4)C3)C2)s1 (single isomer, unassigned) [Compound 417] | 1.8 nM | 0.05 nM |
| CC(=O)Nc1cc(N[C@H]2C[C@@H]([C@@H](C(C)C)N3CC4(CCN(c5ncnnc5Oc5ccc(F)cc5-c5cncnc5C5CC5)C4)C3)C2)ncn1 (single isomer, unassigned) [Compound 418] | 9 nM | 0.07 nM |
| COc1cc(N[C@H]2C[C@@H]([C@@H](C(C)C)N3CC4(CCN(c5ncnnc5Oc5ccc(F)cc5-c5cncnc5C5CC5)C4)C3)C2)cnn1 (single isomer, unassigned) [Compound 419] | 5 nM | 0.14 nM |
| CC(C)[C@H]([C@H]1C[C@@H](Nc2ccnc3[nH]c(=O)ccc23)C1)N1CC2(CCN(c3ncnnc3Oc3ccc(F)cc3-c3cncnc3C3CC3)C2)C1 (single isomer, unassigned) [Compound 420] | 290 nM | ~0.39 nM |
| CNC(=O)Nc1cc(N[C@H]2C[C@@H](C(C(C)C)N3CC4(CCN(c5ncnnc5Oc5ccc(F)cc5-c5cncnc5C5CC5)C4)C3)C2)ccn1 (single isomer, unassigned) [Compound 421] | < 1.8 nM | 0.13 nM |
| CC(C)[C@H]([C@H]1C[C@@H](Nc2ncnc3[nH]ncc23)C1)N1CC2(CCN(c3ncnnc3Oc3ccc(F)cc3-c3cncnc3C3CC3)C2)C1 (single isomer, unassigned) [Compound 422] | 88 nM | ~0.27 nM |
| Cc1cc(-c2cnnc(N[C@H]3C[C@@H]([C@@H](C(C)C)N4CC5(CCN(c6ncnnc6Oc6ccc(F)cc6-c6cncnc6C6CC6)C5)C4)C3)c2)[nH]n1 (single isomer, unassigned) [Compound 423] | 9 nM | 0.18 nM |
| CC(C)[C@H]([C@H]1C[C@@H](Nc2cnnc(-c3ccn[nH]3)c2)C1)N1CC2(CCN(c3ncnnc3Oc3ccc(F)cc3-c3cncnc3C3CC3)C2)C1 (single isomer, unassigned) [Compound 424] | 4 nM | 0.17 nM |
| CC(C)C([C@H]1C[C@@H](Nc2cccc(CN(C)C)n2)C1)N1CC2(CCN(c3ncnnc3Oc3ccc(F)cc3-c3cncnc3C3CC3)C2)C1 (single isomer, unassigned) [Compound 425] | 6 nM | 0.03 nM |

| Compound | IC50 (MOLM14 cells) | IC50 [1] |
| --- | --- | --- |
| Cc1cn2ccc(N[C@H]3C[C@@H](C(C(C)C)N4CC5(CCN(c6ncnnc6Oc6ccc(F)cc6-c6cncnc6C6CC6)C5)C4)C3)cc2n1 (single isomer, unassigned) [Compound 426] | < 1.8 nM | 0.09 nM |
| COC(=O)Nc1cc(N[C@H]2C[C@@H]([C@@H](C(C)C)N3CC4(CCN(c5ncnnc5Oc5ccc(F)cc5-c5cncnc5C5CC5)C4)C3)C2)ccn1 (single isomer, unassigned) [Compound 427] | < 1.8 nM | ~0.11 nM |
| CC(C)C([C@H]1C[C@@H](Nc2cccc(CN3CCOCC3)n2)C1)N1CC2(CCN(c3ncnnc3Oc3ccc(F)cc3-c3cncnc3C3CC3)C2)C1 (single isomer, unassigned) [Compound 428] | 16 nM | 0.09 nM |
| CC(=O)Nc1nccc(N[C@H]2C[C@@H]([C@@H](C(C)C)N3CC4(CCN(c5ncnnc5Oc5ccc(F)cc5-c5cncnc5C5CC5)C4)C3)C2)c1F (single isomer, unassigned) [Compound 429] | 3.3 nM | 0.17 nM |
| Cc1nnc(-c2cc(N[C@H]3C[C@@H]([C@@H](C(C)C)N4CC5(CCN(c6ncnnc6Oc6ccc(F)cc6-c6cncnc6C6CC6)C5)C4)C3)ccn2)[nH]1 (single isomer, unassigned) [Compound 430] | 3.4 nM | 0.11 nM |
| CC(C)[C@H]([C@H]1C[C@@H](Nc2cnc3nn[nH]c3c2)C1)N1CC2(CCN(c3ncnnc3Oc3ccc(F)cc3-c3cncnc3C3CC3)C2)C1 (single isomer, unassigned) [Compound 431] | 79 nM | 0.54 nM |
| CNC(=O)c1cc(N[C@H]2C[C@@H]([C@@H](C(C)C)N3CC4(CCN(c5ncnnc5Oc5ccc(F)cc5-c5cncnc5C5CC5)C4)C3)C2)cnn1 (single isomer, unassigned) [Compound 432] | 22 nM | 0.17 nM |
| CC(C)[C@H]([C@H]1C[C@@H](Nc2cc3nccn3cn2)C1)N1CC2(CCN(c3ncnnc3Oc3ccc(F)cc3-c3cncnc3C3CC3)C2)C1 (single isomer, unassigned) [Compound 433] | 2 nM | 0.15 nM |
| CNC(=O)c1coc(N[C@H]2C[C@@H](C(C(C)C)N3CC4(CCN(c5ncnnc5Oc5ccc(F)cc5-c5cncnc5C5CC5)C4)C3)C2)n1 (single isomer, unassigned) [Compound 438] | 4 nM | 0.16 nM |
| CNC(=O)c1nnc(N[C@H]2C[C@@H]([C@@H](C(C)C)N3CC4(CCN(c5ncnnc5Oc5ccc(F)cc5-c5cncnc5C5CC5)C4)C3)C2)o1 (single isomer, unassigned) [Compound 439] | 25 nM | 0.39 nM |
| C[C@@H]([C@H]1C[C@@H](N)C1)N1CC2(CCN(c3ncnnc3Oc3ccc(F)cc3-c3cncnc3C3CC3)C2)C1 (single isomer, unassigned) [Compound 441] | 680 nM | 0.92 nM |
| CNC(=O)c1nnc(N[C@H]2C[C@@H]([C@@H](C(C)C)N3CC4(CCN(c5ncnnc5Oc5ccc(F)cc5-c5cncnc5C5CC5)C4)C3)C2)s1 (single isomer, unassigned) [Compound 442] | 4 nM | 0.21 nM |
| CNC(=O)c1sc(N[C@H]2C[C@@H]([C@@H](C(C)C)N3CC4(CCN(c5ncnnc5Oc5ccc(F)cc5-c5cncnc5C5CC5)C4)C3)C2)nc1C (single isomer, unassigned) [Compound 443] | 4 nM | 0.08 nM |
| Cc1nnc(-c2cnc(N[C@H]3C[C@@H]([C@@H](C(C)C)N4CC5(CCN(c6ncnnc6Oc6ccc(F)cc6-c6cncnc6C6CC6)C5)C4)C3)s2)o1 (single isomer, unassigned) [Compound 445] | 6 nM | 0.19 nM |
| CC(C)[C@H]([C@H]1C[C@@H](Nc2ncc(C(N)=O)s2)C1)N1CC2(CCN(c3ncnnc3Oc3ccc(F)cc3-c3cncnc3C3CC3)C2)C1 (single isomer, unassigned) [Compound 446] | 7 nM | ~0.1 nM |
| CC(C)[C@H]([C@H]1C[C@@H](Nc2nnc(N)s2)C1)N1CC2(CCN(c3ncnnc3Oc3ccc(F)cc3-c3cncnc3C3CC3)C2)C1 (single isomer, unassigned) [Compound 447] | 4 nM | 0.15 nM |
